{"source": "patent US20240316130A1", "about": "(priority 2023, published 2024)", "tested_on": "ASS1^KO B16F10 cells", "type": "cell-based, murine", "note": "Entries after “also recorded” stand apart in the source; their conditions may differ."}
{"smiles": "NC(=NCCCC(N)C(=O)O)NC(CC(=O)O)C(=O)O", "note": "(centres unmarked) [argininosuccinate]", "values": [{"measurement": "rescue of MYXV replication by supplement", "result": "support myxoma virus replication; also recorded: remained rescuable"}]}
{"smiles": "NC(=O)NCCC[C@H](N)C(=O)O", "note": "[citrulline, L-Citrulline]", "values": [{"measurement": "rescue of MYXV replication by supplement", "result": "not able to divide or support myxoma virus replication; also recorded: could no longer be rescued"}]}
